Here are results for 23 molecules from patent US20020091273A1, “Method for the regioselective preparation of substituted benzo[g]quinoline3-carbonitriles and benzo[g]quinazolines” (American Home Products Corporation, priority 2000, published 2002).

Molecules are shown by their SMILES. Structures can show the parent of a compound that is named as a salt.

The molecule `COc1cc2c(cc1OCc1ccccc1)C(C#N)C2` (centres unmarked) [Example 3, 4-Benzyloxy-3-methoxybicyclo[4.2.0]octa-1,3,5-triene-7-carbonitrile] registered a melting point of 85 °C. Then `COc1cc2cc(C(=O)OC(C)(C)C)c(N)cc2cc1OCc1ccccc1` [Example 7, 3-Amino-6-benzyloxy-7-methoxynaphthalene-2-carboxylic acid tert-butyl ester], with 179 to 180 °C.

In turn, `COc1cc2cc(C(=O)OC(C)(C)C)c(N)cc2cc1OCCN1CCOCC1` [Example 10, 3-Amino-7-methoxy-6-(2-morpholin-4-yl-ethoxy)-naphthalene-2-carboxylic acid tert-butyl ester] came in with a melting point of 125 to 127 °C. Then `COc1cc2c(cc1OCc1ccccc1)C(C#N)(Sc1ccc(Cl)cc1)C2` (centres unmarked) [Example 4, 4-Benzyloxy-7-(4-chloro-phenylsulfanyl)-3-methoxybicyclo [4.2.0]octa-1,3,5-triene-7-carbonitrile], with 114 to 115 °C. Then `COc1cc(CCC#N)c(Br)cc1OCc1ccccc1` [Example 2, 3-(4-Benzyloxy-2-bromo-5-methoxyphenyl)-propionitrile], with 52 to 53 °C; and `COc1cc(Nc2ncnc3cc4cc(OCc5ccccc5)c(OC)cc4cc23)c(Cl)cc1Cl` [Example 30, (8-Benzyloxy-7-methoxybenzo[g]quinazolin-4-yl)-(2,4-dichloro-5-methoxyphenyl)amine], with 275 to 280 °C. Then `COc1cc2cc3c(=O)[nH]cnc3cc2cc1OCCN1CCOCC1` [Example 11, 7-Methoxy-8-(2-morpholin4-yl-ethoxy)-3H-benzo[g]quinazolin-4-one], with 230 to 232 °C.

Regarding `COc1cc2cc3c(=O)c(C#N)c[nH]c3cc2cc1O` [Example 13, 8-Hydroxy-7-methoxy-4-oxo-1,4-dihydrobenzo[g]quinoline-3-carbonitrile], the melting point is more than 300 °C. To `COc1cc2cc3c(Cl)c(C#N)cnc3cc2cc1O` [Example 14, 4-Chloro-8-hydroxy-7-methoxybenzo[g]quinoline-3-carbonitrile] belongs more than 300 °C. Then `COc1cc(Nc2ncnc3cc4cc(OCCN5CCOCC5)c(OC)cc4cc23)c(Cl)cc1Cl` (as salt: hydrochloride) [Example 33, (2,4-Dichloro-5-methoxyphenyl)-[7-methoxy-8-(2-morpholin-4-yl-ethoxy)benzo[g]-quinazolin-4-yl]-amine], with 258 to 260 °C. With `COc1cc2cc3c(=O)c(C#N)c[nH]c3cc2cc1OCCN1CCOCC1` [Example 12, 7-Methoxy-8-(2-morpholin-4-yl-ethoxy)-4-oxo-1,4-dihydrobenzo[g]quinoline-3-carbonitrile], the melting point is 275 °C (dec.). To `COc1cc2cc(C#N)c(N)cc2cc1OCc1ccccc1` [Example 29, 3-Amino-6-benzyloxy-7-methoxynaphthalene-2-carbonitrile] belongs 241 to 243 °C. As to `COc1cc2cc(C(=O)OC(C)(C)C)c(N)cc2cc1O` [Example 9, 3-Amino-6-hydroxy-7-methoxy-naphthalene-2-carboxylic acid tert-butyl ester], the melting point was in the range of 262 to 263 °C.

`COc1cc2cc3c(Nc4ccc(Br)cc4F)ncnc3cc2cc1OCCN1CCOCC1` (as salt: hydrochloride) [Example 32, (4-Bromo-2-fluorophenyl)-[7-methoxy-8-(2-morpholin-4-yl-ethoxy)benzo[g]quinazolin4-yl]-amine] showed a melting point of 210 to 225 °C. Then `COc1cc2cc3c(=O)c(C#N)c[nH]c3cc2cc1OCc1ccccc1` [Example 8, 8-Benzyloxy-7-methoxy-4-oxo-1,4-dihydrobenzo[g]quinoline-3-carbonitrile], with more than 300 °C; and `COc1cc(Nc2c(C#N)cnc3cc4cc(OCCCN5CCOCC5)c(OC)cc4cc23)c(Cl)cc1Cl` [Example 25, 4-(2,4-Dichloro-5-methoxyphenylamino)-7-methoxy-8-(3-morpholin-4-yl-propoxy)benzo[g]quinoline-3-carbonitrile], with 205 to 208 °C.

As to `COc1cc(Nc2c(C#N)cnc3cc4cc(OCCCCl)c(OC)cc4cc23)c(Cl)cc1Cl` [Example 24, 8-(3-Chloropropoxy)-4-(2,4-dichloro-5-methoxyphenylamino)-7-methoxybenzo[g]quinoline-3-carbonitrile], the melting point lay within 220 to 223 °C. Then `COc1cc2c(cc1OCc1ccccc1)C(C#N)(Sc1ccccc1)C2` (centres unmarked) [Example 5, 4-Benzyloxy-3-methoxy-7-phenylsulfanylbicyclo [4.2.0]octa-1,3,5-triene-7-carbonitrile], with 109 to 110 °C; and `COc1cc(CBr)c(Br)cc1OCc1ccccc1` [Example 1, 5-(Benzyloxy)-1-bromo-2-(bromomethyl)-4-methoxybenzene], with 103 to 105 °C; and `COc1cc2cc3c(Cl)ncnc3cc2cc1OCCN1CCOCC1` [Example 31, 4-Chloro-7-methoxy-8-(2-morpholin-4-yl-ethoxy)benzo[g]quinazoline], with 166 to 168 °C. In the case of `COc1cc2cc3c(Nc4ccc(Sc5nccn5C)c(Cl)c4)c(C#N)cnc3cc2cc1OCCN1CCOCC1` [Example 17, 4-[3-Chloro-4-(1-methyl-1H-imidazol-2-ylsulfanyl)phenylamino]-7-methoxy-8-(2-morpholin-4-yl-ethoxy)benzo[g]quinoline-3-carbonitrile], the melting point is more than 300 °C. To `COc1cc2cc3c(Nc4ccc(Sc5nccn5C)c(Cl)c4)c(C#N)cnc3cc2cc1O` [Example 15, 4-[3-Chloro-4-(1-methyl-1 H-imidazol-2-ylsulfanyl)phenylamino]-8-hydroxy-7-methoxybenzo[g]quinoline-3-carbonitrile] belongs more than 300 °C; to `COc1cc2cc3c(Nc4ccc(Sc5nccn5C)c(Cl)c4)c(C#N)cnc3cc2cc1OCCn1ccnn1` [Example 22, 4-[3-Chloro-4-(1-methyl-1H-imidazol-2-ylsulfanyl)phenylamino]-7-methoxy-8-(2-[1,2,3]triazol-1-yl-ethoxy)benzo[g]quinoline-3-carbonitrile], 201 to 207 °C.
